Reference: PubChem BioAssay (NCI)
Where “and” joins values, the source holds several entries; their conditions need not be identical. Equal entries are not always repeated.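 Where inhibition never reached the appropriate level, the endpoint shown equals the highest concentration tested. Otherwise, values were interpolated linearly from a five-concentration, 48-hour dose response in 96-well plates. At the GI50, growth is halved. At the TGI there is no net growth.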

Tests used:
Assay in all cases: NCI anticancer screen, dose series, 48 h
[1] = tested on: DMS 114 small cell lung
[2] = tested on: HOP-18 NSCLC
[3] = tested on: KM20L2 colon
[4] = tested on: LXFL 529 NSCLC
[5] = tested on: SNB-78 CNS
[6] = tested on: HS 578T breast
[7] = tested on: MDA-MB-435
[8] = tested on: RXF-631 renal
[9] = tested on: MDA-N

SMILES | TGI [1] | TGI [2] | TGI [3] | TGI [4] | TGI [5] | GI50 [6] | TGI [6] | GI50 [7] | TGI [7] | other results
CN(C(=O)/C=C/c1ccccc1)C1C2CN3CCC(O2)C13 (configuration not stated) | > 100 µM | > 100 µM | > 100 µM | > 100 µM | > 100 µM |  |  |  |  | 
O=C(/C=C/c1ccccc1)Oc1cccc2cccnc12 |  | > 100 µM | > 39.3 µM | 52.2 µM | > 100 µM |  |  |  |  | 
Nc1nc2ccc(-c3nc4ccc5[nH]ncc5c4c4c3CCC4)cc2s1 |  |  |  |  |  | 0.189 µM | 3.13 µM | 0.0673 µM | 0.259 µM | 
COC(=O)C1=CO[C@@H](OC2CC(CO)C(O)C(O)C2O)[C@@H]2[C@@H](C)[C@@H](OC(=O)/C=C/c3ccccc3)[C@@H](O)[C@H]12 (some centres not stated) (tested in a mixture with another compound) | > 100 µM | > 100 µM | > 100 µM | > 100 µM |  |  |  |  |  | 
CCOC(=O)NC(=O)c1cn(CCN2CCN(C(=O)NCCCCCCNC(=O)N3CCN(CCn4cc(C(=O)NC(=O)OCC)c(=O)[nH]c4=O)CC3)CC2)c(=O)[nH]c1=O | > 100 µM | > 100 µM | > 100 µM | > 100 µM | > 100 µM |  |  |  |  | TGI [8]: > 100 µM
O=C1/C(=C/c2ccc([N+](=O)[O-])cc2)CN(C(=O)CCN2CCC(=NO)CC2)C/C1=C\c1ccc([N+](=O)[O-])cc1 |  |  |  |  |  | 1.98 µM | 9.86 µM | 1 µM | 3.45 µM | 
O=C(O)CCNS(=O)(=O)c1ccc(NC(=O)c2ccccc2)cc1 |  | > 100 µM | > 100 µM | > 100 µM |  |  |  |  |  | 
O=C(NCC1CC1)c1ccc(-c2cccc(C(=O)NC3CC3)c2)cc1 |  |  |  |  |  | > 25 µM | > 25 µM | > 25 µM | > 25 µM | 
N#C[Se]Cc1cc(-c2ccccc2)n(-c2ccc(S(N)(=O)=O)cc2)n1 |  |  |  |  |  | 0.637 µM | 5.21 µM | 0.605 µM | 2.45 µM | 
Nc1ncn([C@@H]2S[C@H](CO)[C@@H](O)[C@@H]2F)c(=O)n1 |  |  |  |  |  | > 100 µM | > 100 µM | 0.692 µM | > 100 µM | 
c1cc[c]([Sn][c]2ccccc2)cc1 | > 100 µM | 48.8 µM | 18.8 µM | 33.6 µM | > 100 µM |  |  |  |  | GI50 [1]: 32.7 µM; GI50 [2]: 21.6 µM; GI50 [3]: 13.4 µM; GI50 [4]: 16.8 µM; GI50 [8]: 35.6 µM; TGI [8]: > 100 µM; GI50 [5]: 39.8 µM
C[C@@H](NC(C#N)c1ccco1)c1ccccc1 (some centres not stated) |  |  |  |  |  |  | > 100 µM |  | > 100 µM | TGI [9]: > 100 µM
c1ccc(-c2nc(-c3ccccn3)nc(-c3ccccn3)n2)nc1 |  |  |  |  |  | 53.6 µM | > 100 µM | 41.3 µM | > 100 µM | 
O=c1oc2ccccc2c2c1Sc1ccccc1N2 |  |  |  |  |  |  | > 100 µM |  | > 100 µM | 
CCCN1C(=O)NC(=O)C(CC)(N2C(=O)c3c(F)c(F)c(F)c(F)c3C2=O)C1=O (configuration not stated) |  |  |  |  |  | 2.3 µM | 6.94 µM | 2.25 µM | 6.52 µM | 
CN(C)c1cc2ccccc2oc1=O |  |  |  |  |  |  | > 100 µM |  | > 100 µM | TGI [9]: > 100 µM
CC1=C([Se]CC(OC(=O)CC[Se]c2ccccc2)C(=O)NC(C)(C)C)C(=O)c2ccccc2C1=O (configuration not stated) |  |  |  |  |  |  |  | 2.21 µM | 4.7 µM | 
COc1ccc(C2=Nn3c(nnc3-c3cc(Cl)cc(Cl)c3Cl)SC2)cc1 |  |  |  |  |  | 0.376 µM | 13.6 µM | 0.163 µM | 0.588 µM | 

SMILES | TGI [1] | TGI [2] | TGI [3] | TGI [4] | TGI [5] | GI50 [6] | TGI [6] | GI50 [7] | TGI [7] | other results
CC[O-].CC[O-].O=C([CH-]C(=O)c1ccccc1)CCCCCCCCC(=O)[CH-]C(=O)c1ccccc1.[Ti+4] | > 100 µM |  | > 100 µM | > 100 µM | > 100 µM |  |  |  |  | GI50 [1]: 80.6 µM; GI50 [3]: > 100 µM; GI50 [4]: > 100 µM; GI50 [8]: > 100 µM; TGI [8]: > 100 µM; GI50 [5]: > 100 µM
COC(=O)c1sc(C(=O)OC)c2c1CS(=O)C2 | > 100 µM | > 100 µM | > 100 µM | > 100 µM | > 100 µM |  |  |  |  | TGI [8]: > 100 µM
O=C1CC(CC(=O)C2CCCCC2=O)C(=O)N1 (configuration not stated) | > 100 µM | > 100 µM | > 100 µM | > 100 µM | > 100 µM |  |  |  |  | 
Cn1ccnc1CCc1c(Cl)cccc1Cl | > 100 µM | > 100 µM | > 100 µM | > 100 µM | > 100 µM |  |  |  |  | 
CCSCCCSCCSCC |  |  |  |  |  |  |  |  | > 100 µM | TGI [9]: > 100 µM
CN(C)CCNC(=O)Cn1ccc(=O)c2cc([N+](=O)[O-])ccc21 |  |  |  |  |  |  | > 100 µM |  | > 100 µM | TGI [9]: > 100 µM
CC1=C(C(=O)Nc2ccccc2C)C(c2ccc(Cl)cc2)C(C(=O)Nc2ccccc2C)=C(C)N1 | > 100 µM | > 100 µM |  | > 100 µM | > 100 µM |  |  |  |  | TGI [8]: > 100 µM
O=C(N/N=C/c1ccccc1O)N/N=C/c1ccccc1O | > 100 µM | > 100 µM | > 100 µM | > 100 µM | > 100 µM |  |  |  |  | TGI [8]: > 100 µM
COc1cc(C)ccc1C(=O)c1ccc(C)cc1OC |  |  |  |  |  | 3.45 µM | > 100 µM | 0.295 µM | 1.08 µM | 
CC(=O)c1c(O)c(C)c(O)c(Cc2c(O)c3c(c(C(=O)/C=C/c4ccccc4)c2O)OC(C)(C)C=C3)c1O |  |  |  |  |  |  | > 100 µM |  |  | TGI [9]: > 100 µM
N=C1C(O)C2(I)c3ccccc3N3C(=N)C(O)C4c5ccccc5N1C4C32 (configuration not stated) |  |  |  |  |  |  | > 100 µM |  | 37.9 µM | TGI [9]: > 100 µM
C/C=C/C(C#N)O[Si](C)(C)C (configuration not stated) | > 100 µM | > 100 µM | > 100 µM | > 100 µM | > 100 µM |  |  |  |  | 
Cn1ncc(-c2ccc3c(=O)[nH]nc(CN)c3c2)c1-c1c(F)c(Cl)cc(OC2CC2)c1C#N |  |  |  |  |  | 12.4 µM and 11 µM | 33.8 µM and 29.9 µM | 11.9 µM and 10.7 µM | 24.7 µM and 22.9 µM | 
Cc1c2cnccc2c(C)c2c1c1cc(C#N)ccc1n2C |  |  |  |  |  | 0.241 µM | 1.3 µM | 0.271 µM | 0.899 µM | 
O=C(COc1ccccc1Cl)N1N=C(c2ccc(Cl)cc2)CC1(O)c1ccccc1 (configuration not stated) |  |  | > 100 µM | > 100 µM | > 100 µM |  |  |  |  | TGI [8]: > 100 µM
IC[P+]1(c2ccccc2)CCCC1 | 36.3 µM | > 100 µM | > 100 µM | > 100 µM | > 100 µM |  |  |  |  | 
CC(=O)Nc1ccc(-c2cc(C(=O)O)c3cc4ccccc4cc3n2)cc1 |  |  |  |  |  |  | > 100 µM |  | > 100 µM | TGI [9]: > 100 µM
